Where a name gives a salt, the structure may show the parent alone. Read-outs that look alike come from different tables or passages of the source.
How the values were obtained:
human 5HT1Da receptor = human 5HT1Da receptor (Homo sapiens, UniProt P28221); assay: Binding to cloned human 5HT1Da receptor
Procedure: (§1) Human 5HT1Da and 5HT1Db receptors were cloned according to the sequences published by M. Hamblin and M. Metcalf, Mol. Pharmacol., 40, 143 (1991) and Weinshenk et al., Proc. Natl. Acad. Sci., 89, 3630 (1992).
(§2) The transient transfection and the stable transfection of the genes of these receptors was carried out in Cos-7 and CHO-K1 cell lines by using an electroporator.
(§3) The binding of the derivatives of the present invention with human 5HT1Da, 5HT1Db and 5HT1A receptors was studied according to the method described by P. Pauwels and C. Palmier (Neuropharmacology, 33, 67, 1994).
(§4) The incubation media for these binding measurements comprise 0.4 ml of cell membrane preparation, 0.05 ml of a tritiated ligand [[3H]-SCT (final concentration: 2 nM) for the 5HT1Da and 5HT1Db receptors and [3H]-80H-DPAT (final concentration: 1 nM) for the 5HT1A receptor] and 0.05 ml of the molecule to be tested (final concentrations from 0.1 nM to 1000 nM) or 10 μM (final concentration) of serotonin (5HT1Da and 5HT1Db) or 1 μM (final concentration) of spiroxatrin (5HT1A ).

human 5HT1Db receptor [1] = biological target: T1, human 5HT1Db receptor (Homo sapiens, UniProt P28222); assay: cell-based
T1 sequence (P28222 whole entry): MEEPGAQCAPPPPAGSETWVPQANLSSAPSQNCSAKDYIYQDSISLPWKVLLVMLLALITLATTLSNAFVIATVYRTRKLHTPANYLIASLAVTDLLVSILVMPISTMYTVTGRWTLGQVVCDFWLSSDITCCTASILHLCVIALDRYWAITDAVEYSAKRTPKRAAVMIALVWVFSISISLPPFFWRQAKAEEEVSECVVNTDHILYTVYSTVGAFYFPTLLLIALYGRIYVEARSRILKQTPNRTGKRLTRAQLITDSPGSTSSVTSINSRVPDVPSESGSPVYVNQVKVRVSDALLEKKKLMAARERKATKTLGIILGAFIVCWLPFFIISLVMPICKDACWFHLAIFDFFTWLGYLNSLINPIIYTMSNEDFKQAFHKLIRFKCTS
Procedure: as §1, §2
The inhibition of the formation of cyclic AMP (stimulated by forskolin) mediated by the human 5HT1Db receptor was studied in CHO-K1 cells transfected by the receptor according to the technique described previously for the 5HT1B receptor (P. Pauwels and C. Palmier, Neuropharmacology, 33, 67, 1994).

human 5HT1Db receptor [2] = biological target: T1, human 5HT1Db receptor; assay: Binding to cloned human 5HT1Db receptor
Procedure: as §1, §2, §3, §4

human 5HT1A receptor = biological target: T2, human 5HT1A receptor (Homo sapiens, UniProt P08908); assay: Binding to human 5HT1A receptor (HeLa HA7 cell line)
T2 sequence (P08908 1-422): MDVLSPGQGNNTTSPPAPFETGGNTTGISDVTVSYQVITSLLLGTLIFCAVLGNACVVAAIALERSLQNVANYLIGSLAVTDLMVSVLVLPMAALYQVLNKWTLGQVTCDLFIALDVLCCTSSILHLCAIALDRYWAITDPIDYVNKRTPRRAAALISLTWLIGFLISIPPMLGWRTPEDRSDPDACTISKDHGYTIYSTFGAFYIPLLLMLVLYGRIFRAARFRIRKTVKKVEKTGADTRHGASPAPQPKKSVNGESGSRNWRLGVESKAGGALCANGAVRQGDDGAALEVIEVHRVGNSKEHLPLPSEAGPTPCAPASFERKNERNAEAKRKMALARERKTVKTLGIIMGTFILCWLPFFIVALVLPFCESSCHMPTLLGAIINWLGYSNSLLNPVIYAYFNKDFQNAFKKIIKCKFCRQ
Procedure: The HeLa HA7 cell line expressing the 5HT1A human receptor was obtained from Tulco (Duke Univ., Durham, N.C., USA) and cultured according to the method of Fargin et al., J. Biol. Chem., 264, 14848 (1989).
as §3, §4

[3] = human cloned receptor, [3H] ligand 2 nM, read-out: Ki 5HT1Da
[4] = human 5HT1Db, CHO-K1 cells, read-out: EC50 (Inhibition of the 5HT1Db cyclase stimulated by forskolin)
[5] = human cloned receptor, [3H] ligand 2 nM, read-out: Ki 5HT1Db
[6] = HeLa HA7 cells, [3H]-DPAT ligand 1 nM, read-out: Ki 5HT1A

Chain of human 5HT1Da receptor (P28221 whole entry): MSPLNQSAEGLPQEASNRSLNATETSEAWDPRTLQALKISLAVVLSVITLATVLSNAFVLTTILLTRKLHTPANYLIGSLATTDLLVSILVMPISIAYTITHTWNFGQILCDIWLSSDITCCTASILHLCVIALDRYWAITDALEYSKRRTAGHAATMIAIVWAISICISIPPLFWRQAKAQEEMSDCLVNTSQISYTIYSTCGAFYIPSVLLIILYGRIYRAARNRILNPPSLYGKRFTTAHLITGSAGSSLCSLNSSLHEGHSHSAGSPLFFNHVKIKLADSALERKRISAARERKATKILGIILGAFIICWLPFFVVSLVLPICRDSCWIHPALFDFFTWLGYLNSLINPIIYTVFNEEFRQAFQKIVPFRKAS

Row | SMILES | Ki (human 5HT1Da receptor; [3]) | EC50 (human 5HT1Db receptor [1]; [4]) | Ki (human 5HT1Db receptor [2]; [5]) | Ki (human 5HT1A receptor; [6]) | Ki (human 5HT1Da receptor) | EC50 (human 5HT1Db receptor [1]) | Ki (human 5HT1Db receptor [2]) | Ki (human 5HT1A receptor)
1 | NCCc1c[nH]c2ccc(OCC(=O)N3CCN(c4ccc(NS(=O)(=O)c5ccc([N+](=O)[O-])cc5)cc4)CC3)cc12 [Example 26, N-[4-(4-{2-[3-(2-Aminoethyl)-1H-indol-5-yloxy]acetyl}piperazin-1-yl)phenyl]-4-nitrophenylsulfonamide hydrochloride] | 0.25 nM | 6.5 nM | 0.5 nM | 16.5 nM | – | – | – | –
2 | NCCc1c[nH]c2ccc(OCC(=O)N3CCN(c4ccc(NC(=O)Oc5ccccc5)cc4)CC3)cc12 [Example 33, N-[4-(4-{2-[3-(2-Aminoethyl)-1H-indol-5-yloxy]acetyl}-piperazin-1-yl)phenyl]phenylcarbamate] | – | – | – | – | 2.8 nM | 9 nM | 2 nM | 39 nM
3 | CS(=O)(=O)Nc1ccc(N2CCN(CCOc3ccc4[nH]cc(CCN)c4c3)CC2)cc1 [Example 41, N-[4-(4-{2-[3-(2-Aminoethyl)-1H-indol-5-yloxy]ethyl}piperazin-1-yl)phenyl]methanesulfonamide hydrochloride] | 1.1 nM | 2.6 nM | 0.7 nM | 28 nM | – | – | – | –
